Consider one molecule from patent US7259254B2, “Mutants and assay system to identify USP/RXR ligands” (University of Kentucky Research Foundation, priority 2002, dated 2007).

For assay [1], the target named is T1, P498W/P499W mutant USP (Drosophila melanogaster, UniProt P20153, P498W/P499W).
T1 construct: His tag; made in house; host or cells: bacteria (pET32EK vector)
Briefly: Intrinsic tryptophan fluorescence ligand-binding assay, P498W/P499W mutant USP. To be noted: excitation 290 nm, emission 340 nm. On the procedure: The homodimer-enriched fraction of bacterial recombinant His-dUSP fusion protein was purified by nickel resin selection, elution with imidazole, centrifugal concentration, and then gel permeation chromatography (Superdex 200) with procedures and chemical sources exactly as already described previously Jones et al. (2000) Insect Biochem. Mol. Biol. 30, 671-679. The homodimer-enriched fraction of the purified His-USP fusion protein was raised to 2 ml of NaCl and a final concentration of 0.5 μm. For a fluorescence-based ligand-binding assay based on intrinsic tryptophan fluorescence Jones et al. (2001) Insect Biochem. Mol. Biol. 32, 33-49; Jones et al (1998) Biochem. J. 335, 79-84; 79-84; Jones et al. (2000) Biochem. J. 346, 233-240; Jones et al (1997) Proc. Natl. Acad. Sci. USA 94, 13499-13503, ligand or ethanol carrier was added and the receptor preparation excited at 290 nm and monitored for emission at 340 nm, until the signal from the receptor had stabilized. Fluorescence was measured three times for each sample, with standard deviation typically smaller than the graphical plotted datum point. Each fluorescence experiment was replicated on three or more independent occasions, each time with similar results. […]

In assay [2] the target is T2, C472A/H475L mutant dUSP (Drosophila melanogaster, UniProt P20153, C472A/H475L).
T2 construct: His tag; made in house; host or cells: bacteria (pET32EK vector)
Briefly: Intrinsic tryptophan fluorescence ligand-binding assay, C472A/H475L mutant dUSP. To be noted: 75 μm ligand; excitation 290 nm, emission 340 nm. How it is done: (§1) The homodimer-enriched fraction of bacterial recombinant His-dUSP fusion protein was purified by nickel resin selection, elution with imidazole, centrifugal concentration, and then gel permeation chromatography (Superdex 200) with procedures and chemical sources exactly as already described previously Jones et al. (2000) Insect Biochem. Mol. Biol. 30, 671-679. The homodimer-enriched fraction of the purified His-USP fusion protein was raised to 2 ml of NaCl and a final concentration of 0.5 μm. For a fluorescence-based ligand-binding assay based on intrinsic tryptophan fluorescence Jones et al. (2001) Insect Biochem. Mol. Biol. 32, 33-49; Jones et al (1998) Biochem. J. 335, 79-84; 79-84; Jones et al. (2000) Biochem. J. 346, 233-240; Jones et al (1997) Proc. Natl. Acad. Sci. USA 94, 13499-13503, ligand or ethanol carrier was added and the receptor preparation excited at 290 nm and monitored for emission at 340 nm, until the signal from the receptor had stabilized. Fluorescence was measured three times for each sample, with standard deviation typically smaller than the graphical plotted datum point. Each fluorescence experiment was replicated on three or more independent occasions, each time with similar results.
(§2) The ability of the wild-type dUSP and dominant negative, ligand-binding pocket mutant dUSP to bind methyl epoxyfarnesoate was tested.

Assay [3] has as its target T3, His-tagged wild-type dUSP (Drosophila melanogaster, UniProt P20153).
T3 construct: His tag; made in house; host or cells: bacteria (pET32EK vector)
T3 sequence (P20153 1-508): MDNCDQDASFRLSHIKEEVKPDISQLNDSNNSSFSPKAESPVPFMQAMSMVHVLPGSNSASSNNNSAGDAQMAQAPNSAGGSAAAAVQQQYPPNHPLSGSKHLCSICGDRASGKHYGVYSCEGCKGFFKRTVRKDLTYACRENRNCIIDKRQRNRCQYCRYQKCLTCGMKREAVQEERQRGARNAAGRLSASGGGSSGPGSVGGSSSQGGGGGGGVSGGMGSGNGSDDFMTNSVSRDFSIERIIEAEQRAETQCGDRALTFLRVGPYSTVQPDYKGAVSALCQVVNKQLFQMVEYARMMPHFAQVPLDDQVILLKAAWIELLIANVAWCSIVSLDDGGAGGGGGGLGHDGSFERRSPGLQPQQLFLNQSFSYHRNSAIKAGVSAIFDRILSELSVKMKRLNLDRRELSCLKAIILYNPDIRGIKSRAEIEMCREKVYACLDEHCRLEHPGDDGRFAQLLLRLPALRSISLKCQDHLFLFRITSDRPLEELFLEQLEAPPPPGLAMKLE
Nature of the assay: Intrinsic tryptophan fluorescence ligand-binding assay, wild-type dUSP. To be noted: excitation 290 nm, emission 340 nm, 0.5 μm receptor. On the procedure: as §1, §2

Assay [4] has as its system Core promoter reporter with DR1, DR4 or DR12 nuclear hormone response element in Sf9 cells. Nature of the assay: Sf9 cell transfection assay: methyl epoxyfarnesoate activation of DR-enhancer/Core promoter luciferase reporter. In kind it is cell-based, Spodoptera frugiperda. Particulars: transfected Sf9 cells, 75 μm methyl epoxyfarnesoate. How it is done: Spodoptera frugiperda cell line, Sf9, was maintained and transfected as described previously Jones et al (1998) Biochem. J. 335, 79-84; Jones et al. (2000) Biochem. J. 346, 233-240. As an internal control to compare activities of different constructs, 0.3 μg of a constituitive heat-shock promoter-driven β-galactosidase gene was cotransfected. To study the role of USP in activation of the nuclear hormone receptor response element fused to core promoter in methyl epoxyfarnesoate-treated cells, cloned D. melangaster USP (dUSP) cDNA and its derivatives containing mutations in the ligand-binding pocket were cotransfected with the reporter and internal control plasmids. […] After 48 h of the treatment, the cells were harvested and the activity of the luciferase reporter was measured using a luciferase assay kit (Promega) in a multipurpose scintillation counter (Beckman, Fullerton, Calif.). β-Galactosidase activity was measured using chlorophenol red-[…] monosodium (CPRG; Roche Molecular Biochemicals) as a colorimetric substrate.
The sequences and characteristics of the core promoter ([…]) of the JHE gene were described by Jones et al. (2001) Insect Biochem. Mol. Biol. 32, 33-49; Jones et al (1998) Biochem. J. 335, 79-84; 79-84; Jones et al. (2000) Biochem. J. 346, 233-240. The core promoter responds to respond to methyl epoxyfarnesoate through a heterologous 5′ flanking direct repeat motif in cell transfection assay. This Core promoter reporter was cloned into KpnI/BglII sites of pGL3. An NheI site was then placed immediately 5′ to the KpnI site, and multiple direct repeat (DR) sequences were cloned into the NheI site by the following method. […] Upon annealing, the double stranded oligonucleotides would then have a CTAG overhang at each 5′ end. The annealed oligonucleotides were then ligated into concatamers, fractionated by native PAGE and the gel fractions corresponding to higher concatamer forms recovered and ligated into the NheI site. Specific DR sequences for the oligonucleotides were (upper strand) for DR1: 5′-CAAGGTCAAAGGTCAG-3′ (SEQ ID NO: 13), for DR4: 5′-CAAGGTCAAGAAAGGTCAG-3′ (SEQ ID NO: 14), for DR12: 5′-[…]-3′ (SEQ ID NO: 15; CTAG on 5′ ends not shown). The recovered YDRXCore constructs (X representing 1, 4 or 12 intervening bases; Y representing the number of tandem pairs of direct repeats) were verified by sequencing. The intervening sequences in the DR1 and DR4 motifs were randomly chosen, while the DR12 sequence used is found in the ecdysteroid-sensitive ng-1 and ng-2 genes that are expressed during metamorphosis of D. melanogaster, and can serve in vitro as a binding site for the various receptor dimers involving USP (ecdysteroid receptor (EcR)/USP heterodimer, USP/DHR38 heterodimer and USP/USP homodimer. […]
Background: Reporter assays use an easily measured gene product as a stand-in for the process of interest.

For assay [5] the test system is unchanged. Particulars: previous studies; cited from earlier work.

T1 sequence (P20153 whole entry P498W/P499W): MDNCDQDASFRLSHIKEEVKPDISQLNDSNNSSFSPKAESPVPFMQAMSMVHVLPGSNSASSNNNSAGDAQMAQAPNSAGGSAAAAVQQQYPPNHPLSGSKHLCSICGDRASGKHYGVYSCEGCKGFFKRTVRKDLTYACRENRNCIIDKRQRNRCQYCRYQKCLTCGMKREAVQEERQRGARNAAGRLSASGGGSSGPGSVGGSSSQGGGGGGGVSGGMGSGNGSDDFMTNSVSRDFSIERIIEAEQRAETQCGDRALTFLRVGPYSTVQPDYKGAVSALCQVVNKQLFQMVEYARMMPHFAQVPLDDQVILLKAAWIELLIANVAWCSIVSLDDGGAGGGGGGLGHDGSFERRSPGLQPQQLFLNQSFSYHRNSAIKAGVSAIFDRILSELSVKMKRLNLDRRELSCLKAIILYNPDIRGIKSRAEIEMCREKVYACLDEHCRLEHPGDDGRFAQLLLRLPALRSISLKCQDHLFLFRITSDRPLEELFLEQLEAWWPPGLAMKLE
T2 sequence (P20153 whole entry C472A/H475L): as the sequence (P20153 whole entry P498W/P499W) above, with C472A, H475L, W498P, W499P counted along it

For the molecule `COC(=O)C=C(C)CCC=C(C)CCC1OC1(C)C` (stereo not drawn) [methyl epoxyfarnesoate], the “effect on receptor intrinsic fluorescence, P498W/P499W mutant USP” value in assay [1] is recorded as “sharply increasing in fluorescence before then decreasing”. Besides, the “effect on receptor intrinsic fluorescence (ligand binding), C472A/H475L mutant dUSP” value in assay [2] was “did not exhibit a significant response”. For the same molecule, the “effect on receptor intrinsic fluorescence (ligand binding), wild-type dUSP” value in assay [3] is recorded as “suppressed the fluorescence”. Also, the “effect on receptor intrinsic fluorescence (ligand binding), wild-type dUSP” value in assay [3] (listed as Methyl epoxyfarnesoate) is “suppression of receptor fluorescence”. In addition, in assay [4], the “induction in promoter activity, four tandem copies of DR1 motif” value came to 2.5 fold; the “induction in promoter activity, four tandem copies of DR4 motif” value is recorded as 3.5 fold; the “responsiveness of 1DR12mutCore (both DR12 half sites mutated)” value is on record as “no greater than the background of a Core promoter with no enhancer”. The “induction in promoter activity, 4DR12Core construct” value in assay [4] (four tandem DR12 motifs) is reported as 10 fold. In assay [5], the “concentration of maximum effect (dose dependent)” value is about 75 μm.
